Converted amounts (≈) assume the structure as drawn.
Legend:
[1] = test system: Staphylococcus aureus; test: Antibacterial activity against Staphylococcus aureus ATCC 29213 assessed as inhibition of bacterial growth incubated for 16 to 20 hrs by CLSI based microdilution method; assay type: functional; conditions: time 16-20 hrs
[2] = test system: Enterococcus faecalis; test: Antibacterial activity against Enterococcus faecalis ATCC 29212 assessed as inhibition of bacterial growth incubated for 16 to 20 hrs by CLSI based microdilution method; assay type: functional; conditions: time 16-20 hrs
[3] = test system: Micrococcus luteus; test: Antibacterial activity against Micrococcus luteus assessed as inhibition of bacterial growth incubated for 16 to 20 hrs by CLSI based microdilution method; assay type: functional; conditions: time 16-20 hrs
[4] = test system: Escherichia coli; test: Antibacterial activity against Escherichia coli ATCC 25922 assessed as inhibition of bacterial growth incubated for 16 to 20 hrs by CLSI based microdilution method; assay type: functional; conditions: time 16-20 hrs
[5] = test system: Salmonella enterica; test: Antibacterial activity against Salmonella enterica H9812 assessed as inhibition of bacterial growth incubated for 16 to 20 hrs by CLSI based microdilution method; assay type: functional; conditions: time 16-20 hrs
[6] = test system: Salmonella enterica; test: Antibacterial activity against Salmonella enterica 8389 assessed as inhibition of bacterial growth incubated for 16 to 20 hrs by CLSI based microdilution method; assay type: functional; conditions: time 16-20 hrs
[7] = Hemolytic activity in sheep RBC incubated for 1 hr by absorbance based analysis; assay type: toxicity, cell-based, Ovis aries, Erythrocyte; conditions: sheep red blood cells
[8] = Selectivity index, ratio of HC50 for hemolytic activity in sheep RBC to MIC for antibacterial activity against Staphylococcus aureus ATCC 29213; assay type: toxicity; conditions: sheep red blood cells

Compound | MIC [1] [µg/mL] | MIC [2] [µg/mL] | MIC [3] [µg/mL] | MIC [4] [µg/mL] | MIC [5] [µg/mL] | MIC [6] [µg/mL] | HC50 at 1 h [7] [µg/mL] | selectivity ratio [8]
C=CCc1cccc(Oc2ccc(C(=O)CC)cc2)c1OCC[N+](C)(C)CC(=O)NCCCC.[Br-] | 32 | 64 | 64 | 64 | 64 | 128 | 1150 | 35.9
C=CCc1cccc(Oc2ccc(C(=O)CC)cc2)c1OCC[N+](C)(C)CC(=O)N1CCOCC1.[Br-] | 64 | 64 | 16 | 128 | 64 | 64 | > 1280 | > 20
C=CCc1cccc(Oc2ccc(C(=O)CC)cc2)c1OCCCC[N+](C)(C)CC(=O)NCC.[Br-] | 64 | 128 | 128 | 64 | 64 | 32 | 785 | 12.2
Br.C=CCc1cccc(Oc2ccc(C(=O)CC)cc2)c1OCCCSC(=N)N | 16 | 64 | 32 | 32 | 64 | 64 | 894 | 55.8
C=CCc1cccc(Oc2ccc(C(=O)CC)cc2)c1OCC[N+](C)(C)CC(=O)N1CCCC1.[Br-] | 32 | 64 | 32 | 128 | 64 | > 128 | 543 | 17
C=CCc1ccc(O)c(Oc2ccc(C(=O)CC)cc2)c1 | 128 (≈ 453 µM) | 128 (≈ 453 µM) | 64 (≈ 227 µM) | 128 (≈ 453 µM) | 128 (≈ 453 µM) | > 128 | > 640 | > 5
C=CCc1cccc(Oc2ccc(C(=O)CC)cc2)c1OCCCC[N+](C)(C)CC(=O)N1CCCC1.[Br-] | 16 | 16 | 32 | 64 | 128 | 128 | 579 | 36.2
C=CCc1cccc(Oc2ccc(C(=O)CC)cc2)c1OCCC[N+](C)(C)CC(=O)N(CC)CC.[Br-] | 32 | 32 | 128 | 64 | 32 | 64 | 733 | 22.9
C=CCc1cccc(Oc2ccc(C(=O)CC)cc2)c1OCC[N+](C)(C)CC(=O)N(CC)CC.[Br-] | 64 | 64 | 32 | 128 | > 128 | > 128 | 690 | 10.8
C=CCc1cccc(Oc2ccc(C(=O)CC)cc2)c1OCCC[N+](C)(C)CC(=O)N1CCOCC1.[Br-] | 32 | 64 | 64 | > 128 | 64 | > 128 | 674 | 21.1
C[C@@H](O)[C@H]1C(=O)N2C(C(=O)O)=C(S[C@@H]3CN[C@H](C(=O)N(C)C)C3)[C@H](C)[C@H]12 [MEROPENEM] | – | – | – | 0.125 (≈ 0.326 µM) | 0.125 (≈ 0.326 µM) | 0.125 (≈ 0.326 µM) | – | –
C=CCc1cccc(Oc2ccc(C(=O)CC)cc2)c1OCCC[N+](C)(C)CC(=O)NCCC.[Br-] | 64 | 64 | 64 | 64 | 32 | 64 | > 1280 | > 20
Br.C=CCc1cccc(Oc2ccc(C(=O)CC)cc2)c1OCCSC(=N)N | 32 | 64 | 64 | 64 | 128 | 64 | 789 | 24.6
C=CCc1cccc(Oc2ccc(C(=O)CC)cc2)c1O | 128 (≈ 453 µM) | 128 (≈ 453 µM) | 64 (≈ 227 µM) | 128 (≈ 453 µM) | > 128 | > 128 | 438 | 3.4
C=CCc1cccc(Oc2ccc(C(=O)CC)cc2)c1OCCC[N+](C)(C)CC(=O)N1CCCC1.[Br-] | 16 | 32 | 32 | 128 | 64 | 64 | 526 | 32.8

The next lines start with results.

MIC [1] [µg/mL] | MIC [2] [µg/mL] | MIC [3] [µg/mL] | MIC [4] [µg/mL] | MIC [5] [µg/mL] | MIC [6] [µg/mL] | Compound | HC50 at 1 h [7] [µg/mL] | selectivity ratio [8]
16 | 16 | 32 | 64 | 128 | 64 | C=CCc1cccc(Oc2ccc(C(=O)CC)cc2)c1OCCC[N+](C)(C)CC(=O)N(CCC)CCC.[Br-] | 854 | 53.3
4 | 8 | 32 | 16 | > 128 | 8 | C=CCc1cccc(Oc2ccc(C(=O)CC)cc2)c1OCCC[N+](C)(C)CC(=O)NCCCCC.[Br-] | 690 | 172
8 | 8 | 32 | 64 | 128 | 128 | C=CCc1cccc(Oc2ccc(C(=O)CC)cc2)c1OCC[N+](C)(C)CC(=O)N(CCCC)CCCC.[Br-] | 834 | 104
16 | 32 | 16 | 32 | 128 | 64 | Br.C=CCc1cccc(Oc2ccc(C(=O)CC)cc2)c1OCCCCSC(=N)N | 931 | 58.2
4 | – | – | > 128 | – | – | CCCCCCNC(=O)C[N+](C)(C)CCCOc1ccccc1Oc1ccc(C(=O)CC)cc1.[Br-] | 536 | 134
8 | 16 | 16 | 64 | 128 | 32 | C=CCc1cccc(Oc2ccc(C(=O)CC)cc2)c1OCCCC[N+](C)(C)CC(=O)NCCCC.[Br-] | 1110 | 138
16 | – | – | > 128 | – | – | CCCCCCNC(=O)C[N+](C)(C)CCOc1ccccc1Oc1ccc(C(=O)CC)cc1.[Br-] | 918 | 57.4
8 | 16 | 16 | 32 | 64 | 64 | C=CCc1cccc(Oc2ccc(C(=O)CC)cc2)c1OCC[N+](C)(C)CC(=O)NCCCCC.[Br-] | 1550 | 194
4 | 16 | 16 | 64 | 128 | 128 | C=CCc1cccc(Oc2ccc(C(=O)CC)cc2)c1OCCC[N+](C)(C)CC(=O)N(CCCC)CCCC.[Br-] | 776 | 194
2 | 16 | 32 | 32 | 64 | 32 | C=CCc1cccc(Oc2ccc(C(=O)CC)cc2)c1OCCCC[N+](C)(C)CC(=O)N(CCCC)CCCC.[Br-] | 776 | 388

From ChEMBL document CHEMBL5236634, “Membrane-Targeting Neolignan-Antimicrobial Peptide Mimic Conjugates to Combat Methicillin-Resistant Staphylococcus aureus (MRSA) Infections” (J Med Chem, 2022)
